{"source": "patent US20220008398A1", "about": "(priority 2018, published 2022)", "key": {"[1]": {"tested_on": "drug-evoked expression of the immediate early gene c-fos, whole mouse brain", "text": "A unique and novel approach to preclinical testing of psychiatric drugs is based on the proposition that a direct readout of drug-evoked brain activation or inhibition in an animal is the most relevant preclinical assay, because psychiatric drugs exert their effects via activation or inhibition of specific neural circuits and cell types in the brain. […] The method called “pharmacomapping” (implemented by Certerra, Inc. Farmingdale, N.Y.) is based on a largely automated drug-screening platform that comprises whole-brain detection of drug-evoked neuronal activation represented by drug-evoked expression of the immediate early gene (IEG) c-fos (Herrera and Robertson 1996). Until now, the detection of c-fos as a marker of brain activation has been done by laborious methods of in situ hybridization or immunohistochemistry in brain tissue sections, followed by mounting the sections on microscopic slides, manual imaging, and largely visual quantification. Nevertheless, over the last two decades a number of studies used these methods to test drug-evoked activity in the mouse or rat brain for various psychoactive medications, including antipsychotics, antidepressants, stimulants and anxiolytics (Engber et al., 1998; Kiss, 2018; Salminen et al., 1996; SEMBA et al., 1996; Slattery et al., 2005; Sumner et al., 2004).\nIn contrast to the older methods, the pharmacomapping method uses automated and standardized whole-brain immunostaining and brain clearing together with advanced microscopy (light-sheet fluorescence microscopy, LSFM), computational (e.g. machine learning) and statistical methods (FIG. 1). The first generation of this platform used serial two-photon tomography (STPT) as a method for imaging and c-fos-GFP mice expressing green fluorescent protein (GFP) under the control of the c-fos promoter (US 20140297199A1)."}, "[2]": {"tested_on": "time spent floating (immobility) in forced swim", "assay": "Forced swim test", "assay_type": "in vivo", "conditions": "mouse, single dose 10 mg/kg, 1 hour and 24 hours after drug delivery, vs vehicle treated control group", "procedure": "The forced swim test is a frequently used behavioral protocol with a well-established therapeutic predictability for a broad range of antidepressants including ketamine (Porsolt et al. 1977; Cryan and Mombereau 2004; Cryan et al. 2005; Lucki et al. 2001). In this test the mouse is put in a beaker filled with water and the time spent struggling, swimming and floating is measured, with the time spent floating—when the mouse stops struggling to swim—being used as a behavioral correlate of depression."}, "[3]": {"tested_on": "severe major depressive disorder", "conditions": "490 patients, daily oral gaboxadol 5 mg or 10 mg added to escitalopram 20 mg; cited from earlier work"}, "[4]": {"tested_on": "sleep onset and sleep maintenance", "conditions": "three-month efficacy study, insomnia; cited from earlier work"}, "[5]": {"tested_on": "combined delta, theta and alpha activity", "conditions": "160 minutes after administration; cited from earlier work"}, "[6]": {"tested_on": "suicidal ideation in major depressive disorder", "assay": "Prospective randomized clinical trial of oral gaboxadol versus ketamine in patients at risk of suicide"}, "[7]": {"conditions": "acute single dose 10 mg/kg, 10 mg/kg"}, "[8]": {"conditions": "gaboxadol group vs ketamine group"}}, "note": "Entries after “also recorded” stand apart in the source; their conditions may differ. Like-named read-outs stand apart in the source and are kept apart here."}
{"smiles": "Oc1noc2c1CCNC2", "note": "[gaboxadol, 4,5,6,7-tetrahydroisoxazolo [5,4-c]pyridine-3-ol]", "values": [{"measurement": "drug-evoked brain activation (pharmacomap)", "setting": "[1]; 3 mg/kg alone", "value": "neither gaboxadol at 3 mg/kg nor ketamine at 6 mg/kg alone evoked any brain activation detectable"}, {"measurement": "drug-evoked brain activation (pharmacomap)", "setting": "[1]; [7]", "value": "very similar brain activation as ketamine"}, {"measurement": "drug-evoked brain activation (pharmacomap)", "setting": "[1]; acute single dose 10 mg/kg, listed as Gaboxadol, 10 mg/kg", "value": "broad brain activation that is highly similar to that of ketamine"}, {"measurement": "time spent floating (immobility) during 6 min forced swim", "setting": "[2]", "value": "nearly identical behavioral effect as the ketamine group; also recorded: significantly reduced the time spent in floating (immobility)"}, {"measurement": "benefit in treatment of severe major depressive disorder", "setting": "[3]", "value": "no additional benefit"}, {"measurement": "effects in sleep onset and sleep maintenance", "setting": "[4]", "value": "failed to show significant effects in sleep onset and sleep maintenance"}, {"measurement": "whole head MEG planar gradiometer increase in combined delta, theta and alpha activity", "setting": "[5]", "value": "≥ +3"}, {"measurement": "day 1 POMS total mood disturbance score", "setting": "[6]; [8]", "value": "greater improvement in the gaboxadol group compared with the ketamine group"}, {"measurement": "decrease in suicidal ideation at 230 minutes", "setting": "[6]; [8]", "value": "greater in the gaboxadol group compared with the ketamine group"}, {"measurement": "proportion of responders on the SSI at day 1", "setting": "[6]; [8]", "value": "significantly higher in the gaboxadol group than the ketamine group"}, {"measurement": "Cohen's d for the difference in mean group change (SSI)", "setting": "[6]; gaboxadol group vs ketamine group, baseline to day 1", "value": "greater than medium effect size"}, {"measurement": "average SSI score at day 1", "setting": "[6]; gaboxadol hydrochloride 0.85 mg/kg oral vs ketamine 0.5 mg/kg infusion, 24 hours", "value": "lower in the gaboxadol group compared with the ketamine group"}]}
{"smiles": "CNC1(c2ccccc2Cl)CCCCC1=O", "note": "(centres unmarked) [ketamine]", "values": [{"measurement": "drug-evoked brain activation (pharmacomap)", "setting": "[1]; 6 mg/kg alone", "value": "neither gaboxadol at 3 mg/kg nor ketamine at 6 mg/kg alone evoked any brain activation detectable"}, {"measurement": "drug-evoked brain activation (pharmacomap)", "setting": "[1]; acute single dose 5 mg/kg", "value": "modest activation"}, {"measurement": "drug-evoked brain activation (pharmacomap)", "setting": "[1]; [7]", "value": "very robust and broad activation; also recorded: very broad activation pattern"}, {"measurement": "drug-evoked brain activation (pharmacomap)", "setting": "[1]; acute single dose 100 mg/kg", "value": "modest activation"}, {"measurement": "time spent floating (immobility) during 6 min forced swim", "setting": "[2]", "value": "significantly decreases the time the drug treated mice spent floating; also recorded: significantly reduced the time spent in floating (immobility)"}]}
